# Measured values as given in ChEMBL document CHEMBL1124317, “Rationale for the synthesis and preliminary biological evaluation of highly active new antitumor nitrosoureido sugars” (J Med Chem, 1989).
# Assays:
# Mus musculus [1] = test: The number of B16 Melanocarcinoma mice survived after 30 days with compound injected by a dose of 20 mg/kg intraperitoneally; 10/10; format: functional; details: route intraperitoneal
# Mus musculus [2] = test: The number of B16 Melanocarcinoma mice survived after 30 days with compound injected by a dose of 10 mg/kg intraperitoneally; 10/10; format: functional; details: route intraperitoneal
# Mus musculus [3] = test: The number of B16 melanocarcinoma mice survived after 60 days with compound in olive oil injected by a dose of 20 mg/kg intraperitoneally; 3/20; format: functional; details: route intraperitoneal
# Mus musculus [4] = test: Anti tumor activity l when treated to mice with L1210 leukemia with 1.25 mg/kg dose of compound intraperitoneally was expressed as percent of treated to control (T/C %); format: functional; details: route intraperitoneal
# Mus musculus [5] = test: The number of L1210 leukemia mice survived after 30 days with compound injected by a dose of 10 mg/kg intraperitoneally; 8/8; format: functional; details: route intraperitoneal
# Mus musculus [6] = test: The number of L1210 leukemia mice survived after 30 days with compound injected by a dose of 2.5 mg/kg intraperitoneally; 0/10; format: functional; details: route intraperitoneal
# Mus musculus [7] = test: The number of L1210 leukemia mice survived after 30 days with compound injected by a dose of 20 mg/kg intraperitoneally; 10/10; format: functional; details: route intraperitoneal
# Mus musculus [8] = test: The number of L1210 leukemia mice survived after 30 days with compound injected by a dose of 30 mg/kg intraperitoneally; 9/10; format: functional; details: route intraperitoneal
# Mus musculus [9] = test: The number of B16 Melanocarcinoma mice survived after 60 days with compound injected by a dose of 20 mg/kg intraperitoneally; 9/10; format: functional; details: route intraperitoneal
# Mus musculus [10] = test: Anti tumor activity in olive oil when treated to mice with B16 melanocarcinoma with 20 mg/kg dose of compound intraperitoneally was expressed as percent of treated to control (T/C %); format: functional; details: route intraperitoneal
# Mus musculus [11] = test: Anti tumor activity in olive oil when treated to mice with L1210 leukemia with 20 mg/kg dose of compound intraperitoneally was expressed as percent of treated to control (T/C %); format: functional; details: route intraperitoneal
# [12] = (§1) Lethal dose was evaluated in male mouse; format: toxicity, organism-based; details: in vivo
# Mus musculus [13] = species on record: Mus musculus; test: as §1; format: toxicity, organism-based; details: in vivo
# Mus musculus [14] = test: The number of L1210 leukemia mice survived after 30 days with compound injected by a dose of 2.5 mg/kg intraperitoneally; 8/8; format: functional; details: route intraperitoneal
# Mus musculus [15] = test: The number of L1210 leukemia mice survived after 60 days with compound injected by a dose of 10 mg/kg intraperitoneally; 9/10; format: functional; details: route intraperitoneal
# Mus musculus [16] = test: The number of L1210 leukemia mice survived after 60 days with compound injected by a dose of 2.5 mg/kg intraperitoneally; 0/8; format: functional; details: route intraperitoneal
# Mus musculus [17] = test: Anti tumor activity l when treated to mice with B16 Melanocarcinoma with 5 mg/kg dose of compound intraperitoneally was expressed as percent of treated to control (T/C %); format: functional; details: route intraperitoneal
# Mus musculus [18] = test: Median survival time of the non surviving mice; treated with 20 mg/kg of compound in olive oil to mice with B16 Melanocarcinoma; 12-47; format: functional
# Mus musculus [19] = test: Median survival time of the non surviving mice; treated with 0.625 mg/kg of compound to mice with L1210 leukemia; 10-12; format: functional
# Mus musculus [20] = test: Median survival time of the non surviving mice; treated with 1.25 mg/kg of compound to mice with L1210 leukemia; 16-19; format: functional
# Mus musculus [21] = test: Median survival time of the non surviving mice; treated with 10 mg/kg of compound to mice with B16 Melanocarcinoma; 34-47; format: functional
# Mus musculus [22] = test: Median survival time of the non surviving mice; treated with 2.5 mg/kg of compound to mice with L1210 leukemia; 11-14; format: functional
# Mus musculus [23] = test: The number of L1210 Leukemia mice survived after 60 days with compound in olive oil injected by a dose of 20 mg/kg intraperitoneally; 7/15; format: functional; details: route intraperitoneal
# Mus musculus [24] = test: The number of L1210 leukemia mice survived after 60 days with compound injected by a dose of 10 mg/kg intra peritoneally; 8/8; format: functional
# [25] = Ratio of mice died to that of mice treated with 20 mg/kg of compound in olive oil intraperitoneally with B16 Melanocarcinoma; 0/20; format: functional; details: route intraperitoneal
# [26] = Ratio of mice died to that of mice treated with 20 mg/kg of compound in olive oil intraperitoneally with Lewis lung; 0/20; format: functional; details: route intraperitoneal
# [27] = Mortality range of the mice with L1210 leukemia treated with 10 mg/kg of dose intraperitoneally with no of mice survived/no of mice treated; 0/10; format: functional; details: route intraperitoneal
# [28] = Mortality range of the mice with L1210 leukemia treated with 5 mg/kg of dose intraperitoneally with no of mice survived/no of mice treated; 0/8; format: functional; details: route intraperitoneal
# [29] = Mortality range of the mice with L1210 leukemia treated with 0.625 mg/kg of dose intraperitoneally with no of mice survived/no of mice treated; 0/8; format: functional; details: route intraperitoneal
structure (smiles),measurement,setting,value
CO[C@@H]1C[C@@H](NC(=O)N(CCCl)N=O)[C@H](O)[C@@H](CO)O1 [ECOMUSTINE],Survivals,Mus musculus [1],10
same,Survivals,Mus musculus [2],10
same,Survivals,Mus musculus [3],3
same,T/C,Mus musculus [4],188%
same,Survivals,Mus musculus [5],8
same,Survivals,Mus musculus [6],0
same,Survivals,Mus musculus [7],10
same,Survivals,Mus musculus [8],9
same,Survivals,Mus musculus [9],9
same,T/C,Mus musculus [10],239%
same,T/C,Mus musculus [11],644%
same,LD50,[12],43.3 mg/kg
same,LD10,Mus musculus [13],31.2 mg/kg
same,LD90,Mus musculus [13],60 mg/kg
same,Survivals,Mus musculus [14],8
same,Survivals,Mus musculus [15],9
same,Survivals,Mus musculus [16],0
same,T/C,Mus musculus [17],203%
same,Median survival time,Mus musculus [18],33.33
same,Median survival time,Mus musculus [19],11.25
same,Median survival time,Mus musculus [20],16.9
same,Median survival time,Mus musculus [21],44
same,Median survival time,Mus musculus [22],12.9
same,Survivals,Mus musculus [23],7
same,Survivals,Mus musculus [24],8
same,Ratio,[25],0
same,Ratio,[26],0
same,Ratio,[27],0
same,Ratio,[28],0
same,Ratio,[29],0
